System: HCV pseudoparticles
Assay: HCV pseudoparticle infection assay (luciferase reporter, Huh7 cells)
Type: cell-based, HCV (genotype 1b E1 and E2 envelope)
Conditions: Hepatitis C virus, genotype 1b, Huh-7, 48 h, HCV pseudoparticles (genotype 1b), luciferase activity 2 days after infection

| SMILES | EC50 (class) [nM] | EC50 [nM] |
| --- | --- | --- |
| O=C(NS(=O)(=O)C1CC1)c1ccc(Nc2nc(NC3(c4ccc(Cl)cc4)CC3)nc(OCC(F)(F)F)n2)cc1 [Example 1001] | 0.5 to 100 | – |
| CS(=O)(=O)NC(=O)c1ccc(Nc2nc(NC3(c4ccc(Cl)cc4)CC3)nc(OCC(F)(F)F)n2)cc1 [Example 1002] | 0.5 to 100 | – |
| CCS(=O)(=O)NC(=O)c1ccc(Nc2nc(NC3(c4ccc(Cl)cc4)CC3)nc(OCC(F)(F)F)n2)cc1 [Example 1003] | 0.5 to 100 | – |
| C=CS(=O)(=O)NC(=O)c1ccc(Nc2nc(NC3(c4ccc(Cl)cc4)CC3)nc(OCC(F)(F)F)n2)cc1 [Example 1004] | 0.5 to 100 | 5.3 |
| CC(C)S(=O)(=O)NC(=O)c1ccc(Nc2nc(NC3(c4ccc(Cl)cc4)CC3)nc(OCC(F)(F)F)n2)cc1 [Example 1005] | 0.5 to 100 | – |
| CN(C)S(=O)(=O)NC(=O)c1ccc(Nc2nc(NC3(c4ccc(Cl)cc4)CC3)nc(OCC(F)(F)F)n2)cc1 [Example 1006] | 0.5 to 100 | 39 |
| CCCC1(S(=O)(=O)NC(=O)c2ccc(Nc3nc(NC4(c5ccc(Cl)cc5)CC4)nc(OCC(F)(F)F)n3)cc2)CC1 [Example 1007] | 0.5 to 100 | – |
| CCC1(S(=O)(=O)NC(=O)c2ccc(Nc3nc(NC4(c5ccc(Cl)cc5)CC4)nc(OCC(F)(F)F)n3)cc2)CC1 [Example 1008] | 0.5 to 100 | 81 |
| O=C(NS(=O)(=O)CCCCl)c1ccc(Nc2nc(NC3(c4ccc(Cl)cc4)CC3)nc(OCC(F)(F)F)n2)cc1 [Example 1009] | 0.5 to 100 | – |
| COCC1(S(=O)(=O)NC(=O)c2ccc(Nc3nc(NC4(c5ccc(Cl)cc5)CC4)nc(OCC(F)(F)F)n3)cc2)CC1 [Example 1010] | 0.5 to 100 | – |
| O=C(NS(=O)(=O)C1(CN2CCCC2)CC1)c1ccc(Nc2nc(NC3(c4ccc(Cl)cc4)CC3)nc(OCC(F)(F)F)n2)cc1 [Example 1011] | 0.5 to 100 | 0.48 |
| CN(C)CC1(S(=O)(=O)NC(=O)c2ccc(Nc3nc(NC4(c5ccc(Cl)cc5)CC4)nc(OCC(F)(F)F)n3)cc2)CC1 [Example 1012] | 0.5 to 100 | 0.25 |
| O=C(NS(=O)(=O)C1(CN2CCC2)CC1)c1ccc(Nc2nc(NC3(c4ccc(Cl)cc4)CC3)nc(OCC(F)(F)F)n2)cc1 [Example 1013] | 0.5 to 100 | – |
| CCN(CC)CC1(S(=O)(=O)NC(=O)c2ccc(Nc3nc(NC4(c5ccc(Cl)cc5)CC4)nc(OCC(F)(F)F)n3)cc2)CC1 [Example 1014] | 0.5 to 100 | – |
| O=C(NS(=O)(=O)C1(CN2CCOCC2)CC1)c1ccc(Nc2nc(NC3(c4ccc(Cl)cc4)CC3)nc(OCC(F)(F)F)n2)cc1 [Example 1015] | 0.5 to 100 | – |
| CC1(C)CCCN1CC1(S(=O)(=O)NC(=O)c2ccc(Nc3nc(NC4(c5ccc(Cl)cc5)CC4)nc(OCC(F)(F)F)n3)cc2)CC1 [Example 1016] | 0.5 to 100 | – |
| NC(=O)C1C[C@@H]2C[C@@H]2N1CC1(S(=O)(=O)NC(=O)c2ccc(Nc3nc(NC4(c5ccc(Cl)cc5)CC4)nc(OCC(F)(F)F)n3)cc2)CC1 (some centres unmarked) [Example 1017] | 0.5 to 100 | – |
| CC(=O)N1CCN(CC2(S(=O)(=O)NC(=O)c3ccc(Nc4nc(NC5(c6ccc(Cl)cc6)CC5)nc(OCC(F)(F)F)n4)cc3)CC2)CC1 [Example 1018] | 0.5 to 100 | – |
| O=C(NS(=O)(=O)C1(CN2CCN(c3ccncc3)CC2)CC1)c1ccc(Nc2nc(NC3(c4ccc(Cl)cc4)CC3)nc(OCC(F)(F)F)n2)cc1 [Example 1019] | 0.5 to 100 | – |
| CN1CCN(CC2(S(=O)(=O)NC(=O)c3ccc(Nc4nc(NC5(c6ccc(Cl)cc6)CC5)nc(OCC(F)(F)F)n4)cc3)CC2)CC1 [Example 1020] | 0.5 to 100 | – |
| CN(CC1(S(=O)(=O)NC(=O)c2ccc(Nc3nc(NC4(c5ccc(Cl)cc5)CC4)nc(OCC(F)(F)F)n3)cc2)CC1)c1ccccc1 [Example 1021] | 0.5 to 100 | 94 |
| CN(CC1(S(=O)(=O)NC(=O)c2ccc(Nc3nc(NC4(c5ccc(Cl)cc5)CC4)nc(OCC(F)(F)F)n3)cc2)CC1)C1CC1 [Example 1022] | 0.5 to 100 | – |
| CC1(C)CCN(CC2(S(=O)(=O)NC(=O)c3ccc(Nc4nc(NC5(c6ccc(Cl)cc6)CC5)nc(OCC(F)(F)F)n4)cc3)CC2)C1 [Example 1023] | 0.5 to 100 | – |
| O=C(NS(=O)(=O)C1(CN2CC3CC3C2)CC1)c1ccc(Nc2nc(NC3(c4ccc(Cl)cc4)CC3)nc(OCC(F)(F)F)n2)cc1 (centres unmarked) [Example 1024] | 0.5 to 100 | – |
| O=C(NS(=O)(=O)C1(CO)CC1)c1ccc(Nc2nc(NC3(c4ccc(Cl)cc4)CC3)nc(OCC(F)(F)F)n2)cc1 [Example 1025, 4-(4-(1-(4-chlorophenyl)cyclopropylamino)-6-(2,2,2-trifluoroethoxy)-1,3,5-triazin-2-ylamino)-N-(1-(hydroxymethyl)cyclopropylsulfonyl)benzamide] | 0.5 to 100 | – |
| CNC(=O)OCC1(S(=O)(=O)NC(=O)c2ccc(Nc3nc(NC4(c5ccc(Cl)cc5)CC4)nc(OCC(F)(F)F)n3)cc2)CC1 [Example 1026] | 100 to 1000 | 103 |
| CC(C)NC(=O)OCC1(S(=O)(=O)NC(=O)c2ccc(Nc3nc(NC4(c5ccc(Cl)cc5)CC4)nc(OCC(F)(F)F)n3)cc2)CC1 [Example 1027] | 0.5 to 100 | – |
| O=C(Nc1cccnc1)OCC1(S(=O)(=O)NC(=O)c2ccc(Nc3nc(NC4(c5ccc(Cl)cc5)CC4)nc(OCC(F)(F)F)n3)cc2)CC1 [Example 1028] | 0.5 to 100 | 60 |

| SMILES | EC50 (class) [nM] | EC50 [nM] |
| --- | --- | --- |
| O=C(NS(=O)(=O)CCN1CCCC1)c1ccc(Nc2nc(NC3(c4ccc(Cl)cc4)CC3)nc(OCC(F)(F)F)n2)cc1 [Example 1029, 4-(4-(1-(4-chlorophenyl)cyclopropylamino)-6-(2,2,2-trifluoroethoxy)-1,3,5-triazin-2-ylamino)-N-(2-(pyrrolidin-1-yl)ethylsulfonyl)benzamide] | 0.5 to 100 | – |
| O=C(NS(=O)(=O)CCN1CCOCC1)c1ccc(Nc2nc(NC3(c4ccc(Cl)cc4)CC3)nc(OCC(F)(F)F)n2)cc1 [Example 1030] | 0.5 to 100 | – |
| CN(C)CCS(=O)(=O)NC(=O)c1ccc(Nc2nc(NC3(c4ccc(Cl)cc4)CC3)nc(OCC(F)(F)F)n2)cc1 [Example 1031] | 0.5 to 100 | – |
| CCN(CC)CCS(=O)(=O)NC(=O)c1ccc(Nc2nc(NC3(c4ccc(Cl)cc4)CC3)nc(OCC(F)(F)F)n2)cc1 [Example 1032] | 0.5 to 100 | – |
| CC(C)(C)CNCCS(=O)(=O)NC(=O)c1ccc(Nc2nc(NC3(c4ccc(Cl)cc4)CC3)nc(OCC(F)(F)F)n2)cc1 [Example 1033] | 0.5 to 100 | – |
| O=C(NS(=O)(=O)CCNCc1ccccc1)c1ccc(Nc2nc(NC3(c4ccc(Cl)cc4)CC3)nc(OCC(F)(F)F)n2)cc1 [Example 1034] | 0.5 to 100 | – |
| CC(C)NCCS(=O)(=O)NC(=O)c1ccc(Nc2nc(NC3(c4ccc(Cl)cc4)CC3)nc(OCC(F)(F)F)n2)cc1 [Example 1035] | 0.5 to 100 | – |
| CC(=O)NCCS(=O)(=O)NC(=O)c1ccc(Nc2nc(NC3(c4ccc(Cl)cc4)CC3)nc(OCC(F)(F)F)n2)cc1 [Example 1036] | 0.5 to 100 | – |
| O=C(NCCS(=O)(=O)NC(=O)c1ccc(Nc2nc(NC3(c4ccc(Cl)cc4)CC3)nc(OCC(F)(F)F)n2)cc1)c1ccccc1 [Example 1037] | 0.5 to 100 | – |
| CC(C)C(=O)NCCS(=O)(=O)NC(=O)c1ccc(Nc2nc(NC3(c4ccc(Cl)cc4)CC3)nc(OCC(F)(F)F)n2)cc1 [Example 1038] | 0.5 to 100 | – |
| O=C(NS(=O)(=O)CCNC(=O)C1CC1)c1ccc(Nc2nc(NC3(c4ccc(Cl)cc4)CC3)nc(OCC(F)(F)F)n2)cc1 [Example 1039] | 0.5 to 100 | – |
| O=C(CC(F)(F)F)NCCS(=O)(=O)NC(=O)c1ccc(Nc2nc(NC3(c4ccc(Cl)cc4)CC3)nc(OCC(F)(F)F)n2)cc1 [Example 1040] | 0.5 to 100 | – |
| CC(C)(C)OC(=O)N1CCC[C@H]1C(=O)NCCS(=O)(=O)NC(=O)c1ccc(Nc2nc(NC3(c4ccc(Cl)cc4)CC3)nc(OCC(F)(F)F)n2)cc1 [Example 1041] | 0.5 to 100 | – |
| CC(C)(C)OC(=O)N1CCC(C(=O)NCCS(=O)(=O)NC(=O)c2ccc(Nc3nc(NC4(c5ccc(Cl)cc5)CC4)nc(OCC(F)(F)F)n3)cc2)CC1 [Example 1042] | 0.5 to 100 | – |
| O=C(NCCS(=O)(=O)NC(=O)c1ccc(Nc2nc(NC3(c4ccc(Cl)cc4)CC3)nc(OCC(F)(F)F)n2)cc1)c1cccnc1 [Example 1043] | 0.5 to 100 | – |
| COC(=O)NCCS(=O)(=O)NC(=O)c1ccc(Nc2nc(NC3(c4ccc(Cl)cc4)CC3)nc(OCC(F)(F)F)n2)cc1 [Example 1044] | 0.5 to 100 | – |
| CC(C)OC(=O)NCCS(=O)(=O)NC(=O)c1ccc(Nc2nc(NC3(c4ccc(Cl)cc4)CC3)nc(OCC(F)(F)F)n2)cc1 [Example 1045] | 0.5 to 100 | – |
| CC(C)(C)COC(=O)NCCS(=O)(=O)NC(=O)c1ccc(Nc2nc(NC3(c4ccc(Cl)cc4)CC3)nc(OCC(F)(F)F)n2)cc1 [Example 1046] | 0.5 to 100 | – |
| CNC(=O)NCCS(=O)(=O)NC(=O)c1ccc(Nc2nc(NC3(c4ccc(Cl)cc4)CC3)nc(OCC(F)(F)F)n2)cc1 [Example 1047] | 0.5 to 100 | – |
| CC(C)NC(=O)NCCS(=O)(=O)NC(=O)c1ccc(Nc2nc(NC3(c4ccc(Cl)cc4)CC3)nc(OCC(F)(F)F)n2)cc1 [Example 1048] | 0.5 to 100 | – |
| CC(C)(C)NC(=O)NCCS(=O)(=O)NC(=O)c1ccc(Nc2nc(NC3(c4ccc(Cl)cc4)CC3)nc(OCC(F)(F)F)n2)cc1 [Example 1049] | 0.5 to 100 | – |
| O=C(NCCS(=O)(=O)NC(=O)c1ccc(Nc2nc(NC3(c4ccc(Cl)cc4)CC3)nc(OCC(F)(F)F)n2)cc1)Nc1cccnc1 [Example 1050] | 0.5 to 100 | – |
| CS(=O)(=O)NC(=O)CNC(=O)c1ccc(Nc2nc(NC3(c4ccc(Cl)cc4)CC3)nc(OCC(F)(F)F)n2)cc1 [Example 2009] | 0.5 to 100 | 97 |
| C=CS(=O)(=O)NC(=O)CNC(=O)c1ccc(Nc2nc(NC3(c4ccc(Cl)cc4)CC3)nc(OCC(F)(F)F)n2)cc1 [Example 2010] | 0.5 to 100 | 67 |
| CS(=O)(=O)NC(=O)CCCCNC(=O)c1ccc(Nc2nc(NC3(c4ccc(Cl)cc4)CC3)nc(OCC(F)(F)F)n2)cc1 [Example 2011] | 0.5 to 100 | – |
| O=C(CCCCNC(=O)c1ccc(Nc2nc(NC3(c4ccc(Cl)cc4)CC3)nc(OCC(F)(F)F)n2)cc1)NS(=O)(=O)C1CC1 [Example 2012] | 0.5 to 100 | – |
| CC(C)S(=O)(=O)NC(=O)CCCCNC(=O)c1ccc(Nc2nc(NC3(c4ccc(Cl)cc4)CC3)nc(OCC(F)(F)F)n2)cc1 [Example 2013] | 0.5 to 100 | – |

— patent publication US8765944B2, “Compounds for the treatment of hepatitis C” (priority 2010, dated 2014)
